The results in this text go back to patent publication US20250319139A1, “METHODS FOR TREATING NEUROINFLAMMATION” (University of Virginia Patent Foundation, priority 2021, published 2025).

Assay type in all cases: in vivo, mouse
The subject of assay [1] is C57BL/6J mice. Put plainly: Barnes maze test, old mice. As to conditions: old mice with exercise and surgery; intraperitoneal valeric acid once a week vs normal saline. An excerpt:
After one-week acclimation, old mice (18-month old male C57BL/6J mice) weighing 30-36 g were used in three studies. In the first experiment, old mice were randomly assigned to: 1) control group, 2) exercise group in which mice had 4-week exercise at 35-40% maximal capacity, 3) surgery group, and 4) Exe+Sur group in which mice had 4-week exercise at 35-40% maximal capacity before surgery. The animals were used for learning and memory tests starting 4 days after the surgery (n=12) or their brains were harvested for biochemical assays at 48 h after the surgery (n=10 or 12), for immunofluorescent staining at 48 h and 19 days after the surgery (n=6), and for Golgi staining at 19 days after the surgery (n=8). Blood and feces from mice of the 4 groups were harvested for SCFA measurement at 7 days after the surgery (n=7) and for 16S analyses at 3 and 7 days after the surgery (n=8) or at the end of 4-week exercise protocol or at the corresponding time in the first 2 groups (n=16). Mice for tissue harvesting were different cohorts that were used for learning and memory tests. In second experiment, old mice were randomly assigned to: 1) Trans-Old Control+Sur group, and 2) Trans-Old Exe+Sur group. […] Learning and memory were evaluated from 4 days after surgery (n=10). […] The latency to enter the target box during each trial was recorded by an ANY-Maze video tracking system (SD Instruments).

Assay [2] deals with C57BL/6J mice. Put plainly: Novel object recognition test, old mice. To be noted: old mice with exercise and surgery; intraperitoneal valeric acid once a week vs normal saline.
Assay [3] has as its system IL-6. Put plainly: IL-6 in the hippocampus by ELISA. As to conditions: young adult mice with exercise and surgery; intraperitoneal valeric acid. The protocol: IL-1β, IL-6, C3 and GDNF in the hippocampus were detected by using ELISA kits. For testing the IL-1β, IL-6 and GDNF, brain tissues were homogenized on ice in the RIPA buffer containing 25 mM Tris-HCl with pH 7.6, 150 mM NaCl, 1% sodium deoxycholate, 0.1% SDS and a protease inhibitor cocktail containing 10 mg/ml aproteinin, 5 mg/ml peptastin, 5 mg/ml leupetin and 1 mM phenylmethane sulfonylfluoride. For C3 testing, brain tissues were homogenized on ice in the PTR buffer (supplied in the kit). The supernatant was collected for ELISA detection after the homogenate was centrifuged at 13,000 g for 20 min at 4° C. and the protein concentration was determined by the BCA protein assay (Bio-Rad, Hemel Hempstead, Herts, UK). IL-1β, IL-6, C3 and GDNF in supernatant of brain were detected according to the manufacturer's instruction for ELISA, and the amount of them in each sample in the brain was normalized by its total protein content and was expressed as pg/mg protein.
(In an ELISA, binding on a coated surface is turned into a signal by an enzyme label.)

For assay [4], the system named is dendritic branches and spines of hippocampal neurons. Put plainly: Golgi staining, dendritic arborization. As to conditions: young adult mice with exercise and surgery; intraperitoneal valeric acid. As for the experimental part:
Golgi staining was performed using FD Rapid GolgiStain™ Kit. Nineteen days after surgery, brains of 6 mice in each group were immersed in the impregnation solution (solutions A and B: 1:1) for 2 weeks and then transferred to solution C for 3 days. Coronal brain sections at a thickness of 100 μm and around-2.7 mm from bregma were cut on a vibratome (Microslicer® 10110, Ted Pella, Inc. California, USA). As described before, more than 10 well individualized neurons in the dentate gyrus (DG) region of the hippocampus were randomly selected from each mouse, and sequential optical multiple-layers scanning images were taken at an interval 2.0 μm along the z-axis (3DHISTECH, Pannoramic MIDI, Hungary) with 20× objective. The multiple-layer scanning files were superposed to become one clear scanning file that can be viewed with Caseviewer (3DHISTECH, Hungary) on a computer. The total branch number and dendritic length were measured by Fiji software (Fiji-win64, NIH, USA). The complexity of total dendritic trees (intersections) was estimated using Sholl analysis. For spine density measurement, 5 neurons were selected from each animal. […] The spine numbers in 40 μm segments were counted by an observer who was blind to group assignment. The results were expressed as the number of spines/10 μm segments. […]

Assay [5] has as its system IL-1β. Put plainly: ELISA of IL-1β in the serum. To be noted: young mice, 100 mg/kg intraperitoneal 1 h before and 6 h after 120-min MCAO; 24 h after MCAO; vs saline. The protocol:
Mice were weighed and anesthetized with isoflurane at 24 h after MCAO. Blood samples were obtained from the right heart after thoracotomy. Blood was centrifuged (13,000 g, 4° C.) after it had been placed at 4° C. for 2 h for the collection of serum. After the collection of blood, mice were perfused with 4° C. saline for brain tissue harvesting. The cerebral cortex (anteroposterior: -1.5 to 2.5 mm, mediolateral: 1.0 to 3.0 mm) was dissected out. All dissection procedures were performed on ice. IL-10, IL-17, IL-1β and IL-6 in the serum and brain were detected by using ELISA kits (catalog number: M1000B, M1700, MLB00C and D6050, R&D SYSTEM, Inc., Minneapolis, MN, USA) as we described before. The brain tissues were homogenized on ice in the RIPA buffer containing 25 mM Tris-HCl with pH 7.6, 150 mM NaCl, 1% sodium deoxycholate and 0.1% SDS (catalog number: 89901, Thermo Scientific, Rockford, IL, USA) and a protease inhibitor cocktail containing 10 mg/ml aproteinin, 5 mg/ml […], 5 mg/ml leupetin and 1 mM phenylmethane sulfonylfluoride (catalog number: SRE0055, Sigma-Aldrich, St. Louis, MO, USA). The supernatant was collected for ELISA detection after being centrifuged for 20 min (13,000 g, 4° C.) and the protein concentration was determined by the BCA method. Cytokines in the serum and supernatant of brain were detected according to the manufacturer's instruction. […]

Take `CCCCC(=O)O` [valeric acid]: the “performance in Barnes maze” value in assay [1] is given as “impaired the performance”. Also, in assay [2], the “performance in novel object recognition test” value was “impaired the performance”. The “exercise-induced reduction of IL-6 in the hippocampus” value in assay [3] is reported as “this reduction was blocked”. Moreover, in assay [4], the “exercise attenuation of the decrease of intersections among dendritic branches” value is listed as “this attenuation was blocked” and the “exercise attenuation of the decrease of spine density in the hippocampus” value was “this attenuation was blocked”. Moreover, the “IL-1β in the blood” value in assay [5] is listed as “increased”.
